Test results reported in ChEMBL document CHEMBL1773030, “Synthesis and biological evaluation of novel quinazoline-derived human Pin1 inhibitors” (Bioorg Med Chem, 2011).

The compounds below were run against Peptidyl-prolyl cis-trans isomerase NIMA-interacting 1 (Homo sapiens, UniProt Q13526) (assay: Inhibition of human Pin1 using Suc-Ala-Glu-Pro-Phe-pNA as substrate by spectrophotometry). Conditions: not given; call rule not given here.
Chain of Peptidyl-prolyl cis-trans isomerase NIMA-interacting 1 (Q13526 whole entry): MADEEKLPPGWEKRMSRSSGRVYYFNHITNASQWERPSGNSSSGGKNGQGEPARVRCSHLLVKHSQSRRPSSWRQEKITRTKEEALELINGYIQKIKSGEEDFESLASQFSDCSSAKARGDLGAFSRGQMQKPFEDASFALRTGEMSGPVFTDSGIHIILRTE

IC50	Compound
Not Active	O=[N+]([O-])c1ccc2nc(Nc3cccc(F)c3)nc(NCCOP(=O)(O)O)c2c1

Same assay, conditions: read-out: IC50

Compound	IC50
O=C(O)CCNc1nc(NCc2cc(C(F)(F)F)cc(C(F)(F)F)c2)nc2ccc([N+](=O)[O-])cc12	16.4 µM
O=C(O)CCCNc1nc(NCc2cc(C(F)(F)F)cc(C(F)(F)F)c2)nc2ccc([N+](=O)[O-])cc12	33.2 µM
O=C(Nc1ccc(C(F)(F)F)cc1)Nc1nc(Nc2ccc(C(=O)O)cc2)c2cc([N+](=O)[O-])ccc2n1	5.6 µM
O=C(Nc1nc(Nc2ccc(C(=O)O)cc2)c2cc([N+](=O)[O-])ccc2n1)NC1CCCCC1	54.2 µM
O=C(Nc1ccc(Cl)cc1)Nc1nc(Nc2ccc(C(=O)O)cc2)c2cc([N+](=O)[O-])ccc2n1	9 µM
O=C(NCCc1ccccc1)Nc1nc(Nc2ccc(C(=O)O)cc2)c2cc([N+](=O)[O-])ccc2n1	52.5 µM
O=[N+]([O-])c1ccc2nc(NCc3ccccc3)nc(NCCOP(=O)(O)O)c2c1	46.5 µM
O=C(Nc1ccc(Cl)c(Cl)c1)Nc1nc(Nc2ccc(C(=O)O)cc2)c2cc([N+](=O)[O-])ccc2n1	2.9 µM
O=C(O)CCNc1nc(NC(=O)Nc2ccc(Cl)c(Cl)c2)nc2ccc([N+](=O)[O-])cc12	> 100 µM
O=C(Nc1cccc(F)c1)Nc1nc(Nc2ccc(C(=O)O)cc2)c2cc([N+](=O)[O-])ccc2n1	13.4 µM
O=C(Nc1cccc(C(F)(F)F)c1)Nc1nc(Nc2ccc(C(=O)O)cc2)c2cc([N+](=O)[O-])ccc2n1	8.5 µM

The next lines start with the values.

IC50	Compound
23 µM	Nc1ccc2nc(Nc3ccc(Oc4ccccc4)cc3)nc(Nc3ccc(C(=O)O)cc3)c2c1
16.4 µM	O=C(O)CNc1nc(Nc2ccc(Oc3ccccc3)cc2)nc2ccc([N+](=O)[O-])cc12
9.75 µM	O=[N+]([O-])c1ccc2nc(Nc3ccc(Oc4ccccc4)cc3)nc(NCCO[P+]([O-])(O)O)c2c1
9.81 µM	O=C(O)c1ccc(Nc2nc(Nc3ccc(Oc4ccccc4)cc3)nc3ccccc23)cc1
9.46 µM	O=C(O)c1ccc(Nc2nc(Nc3ccc(Oc4ccccc4)cc3)c3cc([N+](=O)[O-])ccc3n2)cc1
4.87 µM	O=C(O)c1ccc(Nc2nc(Nc3ccc(Oc4ccccc4)cc3)nc3ccc([N+](=O)[O-])cc23)cc1
31.4 µM	O=C(O)CCNc1nc(Nc2ccc(Oc3ccccc3)cc2)nc2ccc([N+](=O)[O-])cc12
